Measurements as given in patent publication US7220784B2, “Substituted stilbenes and their reactions” (priority 2000, dated 2007).
Read-outs that look alike come from different tables or passages of the source.

Columns and labels:
[1] = tested on: A2780; assay: Cytotoxicity/growth inhibition assay (MTT), A2780; type: cell-based; settings: read-out: A2780 IC50
Method: (§1) The following assays (1–5) were carried out as described in our paper (Woods, et al, British Journal of Cancer, 71, 705–711 (1995)). In addition to the cell lines described in this paper, other established human cell lines (K562, HUVEC, H460, BE, H529, and HT29) were used in the cytotoxicity/growth inhibition assay. • (1) Inhibition of tubulin assembly. The figure quoted is the concentration required to reduce assembly of tubulin by 50%. Tubulin assembly is monitored by light scatter/absorption at 350 nm.
(§2) (2) Competition for the colchicine binding site on tubulin. The figure quoted represents the % of ^3H-colchicine bound following co-incubation of test compound and ^3H-cochicine with isolated tubulin. Where ester pro-drugs were used the experiments were carried out in the presence and absence of porcine liver esterase. • (3) Cytotoxicity/growth inhibition assay. This was carried out by the MTT assay. • (4) Permeability (shape-change) assay in endothelial cells. This was carried out using a method based on that of Watts et al. (Anticancer Res., 17, 71–75, (1997)). This involved the diffusion of a fluorescently labelled dextran through a barrier of endothelial cells (HUVEC) grown to confluence on a porous membrane. The effect of agents to alter the shape of these cells results in an increase in the permeability of the cells to the dye. The figure represents the increase in permeability over control cultures when drug is added (30 minutes, 1 mM.). • (5) Experiments to study the anti-vascular effects of these agents were carried out as described previously by our group. (Zhao et al, European Journal of Nuclear Medicine, 26, 231–238 (1999)). The anti-vascular effects of the agents were monitored by either positron emission tomography (PET) or by histologogical examination following treatment of mice bearing T50:80 murine breast tumours, or H460 human lung tumours. • (6) Anti-tumour efficacy of agents was determined in xenografts of H460 human lung cancer. Animals (n=5) were trated either with 5 daily injections and tumour size measured with time following treatment. • (7) The pharmacokinetic profile of agents was determined in mice following injection with drug. Blood was taken at various times following treatment and analysed by HPLC with UV detection. The HPLC conditions were isocratic using a 5 micron C18 BDS column (150×4.6) ad eluting with 75% MeOH in water with a detection wavelength of 290 nm. […] (AND(P)H:quinone oxidoreductace, EC 1.6.99.2). DT-diaphorase is an enzyme over-expressed in a number of human tumours. […] This two-electron reducing enzyme can be used to selectively activate prodrugs within cancers which over-express the enzyme.

[2] = tested on: P388 murine leukaemia cell line; assay: Cytotoxicity/growth inhibition assay (MTT), P388; type: cell-based
Method: as §2, with “This was carried out using a method based on that of Watts et al. (Anticancer Res., 17, 71–75, (1997)).” left out, “(Zhao et al, European Journal of Nuclear Medicine, 26, 231–238 (1999)).” left out, “detection.” for “detection. The HPLC conditions were isocratic using a 5 micron C18 BDS column (150×4.6) ad eluting with 75% MeOH in water with a detection wavelength of 290 nm.”

[3] = tested on: K562 human myelogeneous leukaemia cell line; assay: Cytotoxicity/growth inhibition assay (MTT), K562; type: cell-based; settings: MTT, read-out: K562 IC50
Excerpt: as §1, with “In” for “The following assays (1–5) were carried out as described in our paper (Woods, et al, British Journal of Cancer, 71, 705–711 (1995)). In”
as §2, with “This was carried out using a method based on that of Watts et al. (Anticancer Res., 17, 71–75, (1997)).” left out, “(Zhao et al, European Journal of Nuclear Medicine, 26, 231–238 (1999)).” left out, “detection.” for “detection. The HPLC conditions were isocratic using a 5 micron C18 BDS column (150×4.6) ad eluting with 75% MeOH in water with a detection wavelength of 290 nm.”

[4] = tested on: tubulin; assay: MA IC50 (Tables 12-26, abbreviation not defined); type: biochemical
[5] = tested on: tubulin; assay: CD IC50 (Tables 12-26, abbreviation not defined); type: binding
[6] = tested on: K562; assay: K562 cell cycle analysis; type: cell-based, human; settings: K562; for % of cells in G0–G1 / % of cells in G2-M / % of cells in S phase: of cells with DNA content = 2 n or >2 n

Compound	IC50 [1]	IC50 ([2]; MTT)	IC50 ([2]; Mus musculus, P388, MTT)	IC50 ([3]; Homo sapiens, K562)	IC50 [4]	IC50 [5]	IC50 [3]	% of cells with DNA content <2 n [6]	% of cells in G0–G1 [6]	% of cells in G2-M [6]	% of cells in S phase [6]
COc1cc(C=Cc2ccc(C=O)cc2)cc(OC)c1OC [Compound 96-188]	0.081 µM	0.32 µM									
COc1ccc(C=Cc2ccc(C)c(C)c2)cc1 [Compound 141]			4.9 µM	1.6 µM	> 10 µM	> 25 µM					
COc1ccc(/C=C/c2ccc(C)c(C)c2)cc1 [Compound 142]		20.5 µM			> 10 µM	> 25 µM	> 50 µM				
COc1ccc(C=Cc2ccc(C)c(C)c2)cc1Br [Compound 143]			2.5 µM	1.15 µM	> 10 µM	> 25 µM					
COc1ccc(/C=C/c2ccc(C)c(C)c2)cc1Br [Compound 144]		> 50 µM			> 10 µM	> 25 µM	> 50 µM				
COc1ccc(C=Cc2ccc(C)c(C)c2)cc1O [Compound 146]			0.4 µM	0.07 µM	3.09 µM	12.5 µM		31%	8%	65%	27%
COc1ccc(C=Cc2ccc(C)c(C)c2)cc1F [Compound 147]			1.7 µM	0.09 µM	6.57 µM	> 25 µM		28%	10%	57%	33%
COc1ccc(/C=C/c2ccc(C)c(C)c2)cc1F [Compound 148]		36 µM			> 10 µM	> 25 µM	2.5 µM				
Cc1ccc(C=Cc2ccc(C)c(F)c2)cc1C [Compound 149]			7.2 µM	0.39 µM	> 10 µM	> 25 µM					
Cc1ccc(/C=C/c2ccc(C)c(F)c2)cc1C [Compound 150]		40 µM			> 10 µM	> 25 µM	> 50 µM				
Cc1ccc(C=Cc2ccc(C)c([N+](=O)[O-])c2)cc1C [Compound 151]			9.7 µM	1.5 µM	> 10 µM	> 25 µM					
Cc1ccc(/C=C/c2ccc(C)c([N+](=O)[O-])c2)cc1C [Compound 152]		> 50 µM			> 10 µM	> 25 µM	> 50 µM				
COc1ccc(C(C)=Cc2cc(OC)c(OC)c(OC)c2)cc1O [Compound 200]			7 µM	2 µM	9 µM	> 25 µM					
